Data as given in patent US20220339243A1, “COMPOSITIONS AND SYNERGISTIC METHODS FOR TREATING INFECTIONS” (BioAegis Therapeutics Inc., priority 2019, published 2022).
Converted amounts (≈) assume the structure as drawn.

What was measured:
[1] = system: P. aeruginosa UNC-D; assay: Minimum inhibitory concentrations of the UNC-D strain; type: cell-based; details: for MIC: Pseudomonas aeruginosa, read-out: Minimum inhibitory concentration
Method: P. aeruginosa UNC-D is a sputum isolate from a patient with cystic fibrosis. [Lawrenz M B, et al. Pathog. Dis. 73 (2015)]. Bacteria were cultured on trypticase soy agar (TSA) plates and in Lennox broth at 37° C. with shaking of broth cultures. […] Bacteria were prepared for animal challenge studies by culturing bacteria in Lennox broth overnight and washing the bacteria into 1×PBS before diluting to a final concentration based on OD600-based estimates and a final 50 μl delivery dose. Bacterial inocula were confirmed by serial dilution and colony enumeration on TSA plates.

[2] = system: S. pneumoniae isolates; details: pediatric population; Cai et al. 2018; cited from earlier work
[3] = system: P. aeruginosa UNC-D; assay: Multidrug-resistant P. aeruginosa pneumonia in neutropenic BALB/c mice; type: in vivo
[4] = system: Streptococcus pneumoniae type 3; assay: Antibiotic-sensitive pneumococcal pneumonia, CD1 mice, delayed treatment; type: in vivo; details: PEN 100 μg i.m. on days 2 and 3 after infection; FIG. 3B
[5] = system: Streptococcus pneumoniae type 14; assay: Antibiotic-resistant pneumococcal pneumonia, CD1 mice, delayed treatment; type: in vivo
[6] = system: Streptococcus pneumoniae type 14; assay: In vitro bacterial growth, 1 h culture; type: cell-based; details: PEN 16 μg/ml, pGSN 250 μg/ml, average of 2 replicates
[7] = system: Streptococcus pneumoniae type 14; details: cited from earlier work

C[C@H]1[C@H](NC(=O)/C(=N\OC(C)(C)C(=O)O)c2csc(N)n2)C(=O)N1S(=O)(=O)O [aztreonam]
MIC [1]: 4 µg/mL (≈ 9.19 µM)

CC(C)(O/N=C(\C(=O)N[C@@H]1C(=O)N2C(C(=O)[O-])=C(C[n+]3ccccc3)CS[C@H]12)c1csc(N)n1)C(=O)O [ceftazidime]
MIC [1]: 32 µg/mL (≈ 58.5 µM)

CC[C@H]1OC(=O)[C@H](C)[C@@H](O[C@H]2C[C@@](C)(OC)[C@@H](O)[C@H](C)O2)[C@H](C)[C@@H](O[C@@H]2O[C@H](C)C[C@H](N(C)C)[C@H]2O)[C@](C)(O)C[C@@H](C)C(=O)[C@H](C)[C@@H](O)[C@]1(C)O [erythromycin]
resistance of S. pneumoniae isolates from invasive infections [2]: 96%

C[C@@H]1O[C@@H]1P(=O)(O)O [fosfomycin]
MIC [1]: 256 µg/mL (≈ 1850 µM)

C[C@@H](O)[C@H]1C(=O)N2C(C(=O)O)=C(SCCN=CN)C[C@H]12 [imipenem]
MIC [1]: 16 µg/mL (≈ 53.4 µM)

C[C@@H](O)[C@H]1C(=O)N2C(C(=O)O)=C(S[C@@H]3CN[C@H](C(=O)N(C)C)C3)[C@H](C)[C@H]12 [meropenem]
survival in each of experiments 1 and 2 ([3]; 1250 mg/kg/day of meropenem): ≤ 50%
mean pathology score (lung, maximum 16) ([3]; 1250 mg/kg/day, two independent studies combined, FIG. 9C, p=0.0049): 6.86
near-normal lung histopathology, surviving mice as the denominator ([3]; 26/35 vs 38/46): 74.3%
overall survival, all dosing groups in the 3 experiments combined ([3]; 35/64 without and 46/64 with rhu-pGSN): 55%
overall survival with minor lung injury (pathology scores ≤2) ([3]; all meropenem doses, three experiments, 26/64 vs 38/64, FIG. 10): 41%
spread to spleen / splenic counts ([3]; both studies, combined data, pGSN given with meropenem): controlled spread from lung to spleen
survival, third experiment ([3]; different lot of meropenem, meropenem only group): 75%
survival with near-normal lungs, control survival rate between 25% and 75% ([3]; exploratory post-hoc analysis, 12/32 vs 27/32): 37.5%
survival for 7 days, two sequential studies combined ([3]; meropenem 1250 mg/kg/day s.c. q8h 5 days, rhu-pGSN 12 mg/day i.p. days -1 to +5, FIG. 7C): 31%
time to restoration of body temperature to 95° F. in survivors ([3]; two studies with survival advantage, FIG. 11): 3-5 days post-infection
MIC [1]: 8 µg/mL (≈ 20.9 µM)

CCN1CCN(C(=O)N[C@@H](C(=O)N[C@@H]2C(=O)N3[C@@H]2SC(C)(C)[C@@H]3C(=O)O)c2ccccc2)C(=O)C1=O [piperacillin]
MIC [1]: 16 µg/mL (≈ 30.9 µM)

NC[C@H]1O[C@H](O[C@H]2[C@H](O)[C@@H](O[C@H]3O[C@H](CO)[C@@H](O)[C@H](N)[C@H]3O)[C@H](N)C[C@@H]2N)[C@H](N)C[C@@H]1O [tobramycin]
MIC [1]: 32 µg/mL (≈ 68.4 µM)

colistin
Minimum inhibitory concentration [1]: 1 µg/mL

penicillin
survival [4]: 100%
total lavage neutrophils ([5]; lung lavage 48 hours after infection, single dose, n=5-6/group): 153±74 ×10E4
survival (final four experiments) ([5]; treatment from 24 h after infection, daily for 9 days, pGSN 5 mg i.p., PEN 1 mg i.m., FIG. 4A): no benefit
increase in bacterial CFU [6]: 105000 CFU
minimum inhibitory concentration (MIC) [7]: 8 µg/mL

trimethoprim-sulfamethoxazole
resistance of S. pneumoniae isolates from invasive infections [2]: 79%
